Measured values as given in ChEMBL document CHEMBL4622878, “Cytotoxic Activity of Germacrane-Type Sesquiterpene Lactones from Dimerostemma aspilioides” (J Nat Prod, 2020).
Calls of active or inactive are those of the source. No cut-off for these calls is given here.

Columns and labels:
K562-Lucena 1 [1] = assay: Induction of cell cycle arrest in human K562-Lucena 1 cells assessed as increase in hypodiploid cells at sub-G1 phase at 5.1 uM after 48 hrs by propidium iodide staining based flow cytometric analysis; assay type: functional
K562-Lucena 1 [2] = assay: Induction of cell cycle arrest in human K562-Lucena 1 cells assessed as necrotic cells at 5.1 uM after 24 hrs by propidium iodide staining based flow cytometric analysis (reference value: 1.03%); assay type: functional
K562-Lucena 1 [3] = assay: Induction of DNA fragmentation in human K562-Lucena 1 cells at 5.1 uM incubated for 48 hrs by DAPI staining based fluorescence microscopy; assay type: functional, cell-based
K562 [4] = assay: Induction of apoptosis in human K562 cells assessed as early apoptotic cells at 2.3 uM after 48 hrs by Annexin V-FITC/PI double staining based flow cytometry analysis (reference value: 1.67%); assay type: functional
K562 [5] = assay: Induction of apoptosis in human K562 cells assessed as viable cells at 2.3 uM after 48 hrs by Annexin V-FITC/PI double staining based flow cytometry analysis (Rvb =97.8%); assay type: functional; conditions: K562, 48 h, read-out: Activity
K562 [6] = assay: Induction of morphological changes in human K562 cells assessed as appearance of condensed chromatin at 2.3 uM incubated for 48 hrs by DAPI staining based fluorescence microscopy; assay type: functional, cell-based
K562-Lucena 1 [7] = assay: Induction of cell cycle arrest in human K562-Lucena 1 cells assessed as viable cells at 5.1 uM after 48 hrs by propidium iodide staining based flow cytometric analysis (reference value: 87.1%); assay type: functional; conditions: K562-Lucena 1, 48 h, read-out: Activity
K562-Lucena 1 [8] = assay: Induction of cell cycle arrest in human K562-Lucena 1 cells assessed as viable cells at 5.1 uM after 24 hrs by propidium iodide staining based flow cytometric analysis (reference value: 88%); assay type: functional; conditions: K562-Lucena 1, 24 h, read-out: Activity
K562-Lucena 1 [9] = assay: Induction of cell cycle arrest in human K562-Lucena 1 cells assessed as early apoptotic cells at 5.1 uM after 48 hrs by propidium iodide staining based flow cytometric analysis (reference value: 7.57%); assay type: functional
K562 [10] = assay: Induction of cell cycle arrest in human K562 cells assessed as decrease in accumulation of cells at S phase at 2.3 uM after 24 hrs by propidium iodide staining based flow cytometric analysis; assay type: functional
K562 [11] = assay: Induction of cell cycle arrest in human K562 cells assessed as decrease in accumulation of cells at G1 phase at 2.3 uM after 24 hrs by propidium iodide staining based flow cytometric analysis; assay type: functional
K562 [12] = assay: Cytotoxicity against human K562 cells after 48 hrs by MTT assay; assay type: functional, cell-based; conditions: K562, 48 h
K562 [13] = assay: Induction of DNA fragmentation in human K562 cells at 2.3 uM incubated for 48 hrs by DAPI staining based fluorescence microscopy; assay type: functional, cell-based
K562 [14] = assay: Induction of cell cycle arrest in human K562 cells at 2.3 uM after 48 hrs by propidium iodide staining based flow cytometric analysis; assay type: functional
K562 [15] = assay: Induction of cell cycle arrest in human K562 cells assessed as accumulation of cells at G2/M phase at 2.3 uM after 24 hrs by propidium iodide staining based flow cytometric analysis (reference value: 0.4 +/- 0.2%); assay type: functional
ADR5000 cell line = assay: Cytotoxicity against human CEM/ADR5000 cells after 48 hrs by MTT assay; assay type: functional, cell-based; conditions: ADR5000, 48 h
K562-Lucena 1 [16] = assay: Induction of cell cycle arrest in human K562-Lucena 1 cells assessed as early apoptotic cells at 5.1 uM after 24 hrs by propidium iodide staining based flow cytometric analysis (reference value: 7.79%); assay type: functional
K562 [17] = assay: Induction of morphological changes in human K562 cells assessed as appearance of apoptotic bodies at 2.3 uM incubated for 48 hrs by DAPI staining based fluorescence microscopy; assay type: functional, cell-based
CCRF-CEM = assay: Cytotoxicity against human CCRF-CEM cells after 48 hrs by MTT assay; assay type: functional, cell-based
K562 [18] = assay: Induction of apoptosis in human K562 cells assessed as necrotic cells at 2.3 uM after 24 hrs by Annexin V-FITC/PI double staining based flow cytometry analysis (reference value: 0.085%); assay type: functional
K562-Lucena 1 [19] = assay: Induction of cell cycle arrest in human K562-Lucena 1 cells at 5.1 uM after 48 hrs by propidium iodide staining based flow cytometric analysis; assay type: functional
K562-Lucena 1 [20] = assay: Cytotoxicity against human K562-Lucena 1 cells after 48 hrs by MTT assay; assay type: functional, cell-based; conditions: K562-Lucena 1, 48 h
K562-Lucena 1 [21] = assay: Induction of morphological changes in human K562-Lucena 1 cells assessed as appearance of apoptotic bodies at 5.1 uM incubated for 48 hrs by DAPI staining based fluorescence microscopy; assay type: functional, cell-based
K562 [22] = assay: Induction of cell cycle arrest in human K562 cells assessed as increase in hypodiploid cells at sub-G1 phase at 2.3 uM after 48 hrs by propidium iodide staining based flow cytometric analysis; assay type: functional
K562 [23] = assay: Induction of apoptosis in human K562 cells assessed as necrotic cells at 2.3 uM after 48 hrs by Annexin V-FITC/PI double staining based flow cytometry analysis (reference value: 0.13%); assay type: functional
K562 [24] = assay: Induction of apoptosis in human K562 cells assessed as viable cells at 2.3 uM after 24 hrs by Annexin V-FITC/PI double staining based flow cytometry analysis (Rvb =96.4%); assay type: functional; conditions: K562, 24 h, read-out: Activity
K562-Lucena 1 [25] = assay: Induction of cell cycle arrest in human K562-Lucena 1 cells assessed as accumulation of cells at G2/M phase at 5.1 uM after 24 hrs by propidium iodide staining based flow cytometric analysis (reference value: 3.3 +/- 0.1%); assay type: functional
PBMC = assay: Cytotoxicity against PBMC (unknown origin) after 48 hrs by MTT assay; assay type: cell-based
K562 [26] = assay: Induction of apoptosis in human K562 cells assessed as early apoptotic cells at 2.3 uM after 24 hrs by Annexin V-FITC/PI double staining based flow cytometry analysis (reference value: 2.76%); assay type: functional
K562-Lucena 1 [27] = assay: Induction of cell cycle arrest in human K562-Lucena 1 cells assessed as decrease in accumulation of cells at G1 phase at 5.1 uM after 24 hrs by propidium iodide staining based flow cytometric analysis; assay type: functional
K562 [28] = assay: Induction of apoptosis in human K562 cells assessed as late apoptotic cells at 2.3 uM after 48 hrs by Annexin V-FITC/PI double staining based flow cytometry analysis (reference value: 0.41%); assay type: functional
K562-Lucena 1 [29] = assay: Induction of cell cycle arrest in human K562-Lucena 1 cells assessed as late apoptotic cells at 5.1 uM after 24 hrs by propidium iodide staining based flow cytometric analysis (reference value: 3.15%); assay type: functional
K562-Lucena 1 [30] = assay: Induction of morphological changes in human K562-Lucena 1 cells assessed as appearance of condensed chromatin at 5.1 uM incubated for 48 hrs by DAPI staining based fluorescence microscopy; assay type: functional, cell-based
K562-Lucena 1 [31] = assay: Induction of cell cycle arrest in human K562-Lucena 1 cells assessed as necrotic cells at 5.1 uM after 48 hrs by propidium iodide staining based flow cytometric analysis (reference value: 2.15%); assay type: functional
K562 [32] = assay: Induction of apoptosis in human K562 cells assessed as late apoptotic cells at 2.3 uM after 24 hrs by Annexin V-FITC/PI double staining based flow cytometry analysis (reference value: 0.79%); assay type: functional
K562-Lucena 1 [33] = assay: Induction of cell cycle arrest in human K562-Lucena 1 cells assessed as late apoptotic cells at 5.1 uM after 48 hrs by propidium iodide staining based flow cytometric analysis (reference value: 3.23%); assay type: functional

## C=C(C)C(=O)O[C@H]1C/C(CO)=C/CC[C@@]2(C)O[C@H]2[C@H]2OC(=O)C(=C)[C@@H]21
K562-Lucena 1 [1]
  Activity: Active
K562-Lucena 1 [2]
  Activity: 1.38%
K562-Lucena 1 [3]
  Activity: Active
K562 [4]
  Activity: 30.6%
K562 [5]
  viability at 2.3 µM: 66.4%
K562 [6]
  Activity: Active
K562-Lucena 1 [7]
  viability at 5.1 µM: 54.5%
K562-Lucena 1 [8]
  viability at 5.1 µM: 80.4%
K562-Lucena 1 [9]
  Activity: 31.4%
K562 [10]
  Activity: inactive
K562 [11]
  Activity: inactive
K562 [12]
  IC50: 2300 nM
K562 [13]
  Activity: Active
K562 [14]
  Activity: inactive
K562 [15]
  Activity: 15.1%
ADR5000 cell line
  IC50: 400 nM
K562-Lucena 1 [16]
  Activity: 14.7%
K562 [17]
  Activity: Active
CCRF-CEM
  IC50: 420 nM
K562 [18]
  Activity: 0.42%
K562-Lucena 1 [19]
  Activity: inactive
K562-Lucena 1 [20]
  IC50: 5.1 µM
K562-Lucena 1 [21]
  Activity: Active
K562 [22]
  Activity: Active
K562 [23]
  Activity: 0.56%
K562 [24]
  viability at 2.3 µM: 96.7%
K562-Lucena 1 [25]
  Activity: 23.2%
PBMC
  IC50: 79.9 µM
K562 [26]
  Activity: 2.26%
K562-Lucena 1 [27]
  Activity: Active
K562 [28]
  Activity: 2.38%
K562-Lucena 1 [29]
  Activity: 3.46%
K562-Lucena 1 [30]
  Activity: Active
K562-Lucena 1 [31]
  Activity: 3.29%
K562 [32]
  Activity: 0.64%
K562-Lucena 1 [33]
  Activity: 10.8%
